{
  "source": "patent US12036226B2",
  "about": "“Methods of treating subjects having diabetes with chronic kidney disease” (Poxel SA, priority 2018, dated 2024)",
  "key": {"[1]": {"system": "Japanese type 2 diabetic subjects", "test": "Phase 2b dose-ranging placebo-controlled 24-week study in Japanese type 2 diabetic subjects", "format": "in vivo, human", "protocol": "A Dose-Ranging, Randomized, Double-Blind, Placebo-Controlled, Parallel-Group, Multi-Center Study of the Efficacy and Safety of 3 Doses of Imeglimin after 24 Weeks of Treatment in Japanese Type 2 Diabetic Subjects\nIn this study, a total of 299 subjects with T2DM received either imeglimin at one of the 3 doses (500, 1000 and 1500 mg bid) or placebo. The primary objective of this study was to assess the dose-response of imeglimin at 3 doses (500, 1000 and 1500 mg bid) compared to placebo in male and female subjects with T2DM after 24 weeks of treatment, using glycosylated hemoglobin (HbA1c) as the primary endpoint. Inclusion Criteria: subjects have an eGFR of ≥50 mL/min/1.73 m^2 at screening and >=45 at pre randomization visit. A total of 299 subjects were randomized 1:1:1:1 to one of the 4 study arms, with 268 subjects completing the study.\nPercentage of responders was defined as the percentage of subjects who reached a value of HbA1c≤7% at the end of the 24-week double-blind treatment period. The analysis was performed using the FAS for subjects with an HbA1c value greater than 7.0% at baseline.\nIn a post-hoc analysis, efficacy and safety/tolerability profile was investigated in patients depending on their renal function (CKD 1=eGFR≥90 mL/min/1.73 m^2, CKD2=60≤eGFR<90 mL/min/1.73 m^2, CKD3A=45≤eGFR<60 mL/min/1.73 m^2). 299 patients were randomized 74% of the patients had CKD2, 14% had CKD1, and 12% CKD3A, respectively. The primary endpoint was met with a statistically significant dose-dependent placebo subtracted decrease in HbA1c at the 3 doses with the 2 top doses of 1,000 and 1,500 mg bid reaching an HbA1c decrease of −0.94% and −1.00% respectively (Table 5). […] There were no major differences in the incidence of AE, SAE or AE leading to treatment discontinuation."}, "subjects with T2DM": {"system": "subjects with T2DM", "test": "24-week Phase IIb dose-ranging placebo-controlled study in subjects with T2DM", "format": "in vivo, human", "conditions": "for Mean HbA1c Change from Baseline: Week 24, T2D and Stage 2 and 3a CKD", "protocol": "A 24-Week, Phase IIb, Dose-Ranging, Randomized, Double-blind, Placebo-controlled, Parallel-group Safety and Efficacy Study in Subjects with T2DM\nThe five parallel groups included 4 groups of imeglimin doses (500, 1000, 1500, or 2000 mg twice daily) and 1 placebo group. The primary endpoint was to assess the dose-response in T2D subjects, using change in HbA1c from baseline to week 24 as the primary evaluation criterion. Subjects could be either treatment naïve or treated with any oral antidiabetic monotherapy and were to have an eGFR of ≥50 mL/min/1.73 m^2. A total of 382 subjects were randomized 1:1:1:1:1 to one of the 5 study arms, with 315 subjects completing the study."}, "[2]": {"conditions": "CKD Stage 3a (eGFR < 60 mL/min/1.73 m^2), 1000 mg BID"}, "[3]": {"conditions": "CKD Stage 3a (eGFR < 60 mL/min/1.73 m^2), 1000 mg BID, N 7"}, "[4]": {"conditions": "CKD Stage 3a (eGFR < 60 mL/min/1.73 m^2), 1500 mg BID"}, "[5]": {"conditions": "CKD Stage 3a (eGFR < 60 mL/min/1.73 m^2), 1500 mg BID, N 8"}, "[6]": {"conditions": "Normal eGFR (eGFR > 90 mL/min/1.73 m^2), 500 mg BID"}, "[7]": {"conditions": "Normal eGFR (eGFR > 90 mL/min/1.73 m^2), 500 mg BID, N 9"}, "[8]": {"conditions": "Normal eGFR (eGFR > 90 mL/min/1.73 m^2), 1000 mg BID"}, "[9]": {"conditions": "Normal eGFR (eGFR > 90 mL/min/1.73 m^2), 1000 mg BID, N 9"}, "[10]": {"conditions": "Normal eGFR (eGFR > 90 mL/min/1.73 m^2), 1500 mg BID"}, "[11]": {"conditions": "Normal eGFR (eGFR > 90 mL/min/1.73 m^2), 1500 mg BID, N 14"}},
  "data": [
    {"smiles": "C[C@H]1N=C(N(C)C)N=C(N)N1", "note": "[imeglimin, (6R)—N^2, N^2,6-trimethyl-3,6-dihydro-1,3,5-triazine-2,4-diamine]", "values": [
      {"measurement": "HbA1c LSM Difference vs. Placebo (SEM), Week 24", "setting": "[1]; CKD Stage 3a (eGFR < 60 mL/min/1.73 m^2), 500 mg BID, listed as Imeglimin", "result": "−0.54 (0.336) %"},
      {"measurement": "FPG LSM Difference vs. Placebo, Week 24", "setting": "[1]; [2]", "result": -11.2, "unit": "mg/dL"},
      {"measurement": "HbA1c LSM Difference vs. Placebo (SEM), Week 24", "setting": "[1]; [2]", "result": "−0.44", "unit": "%"},
      {"measurement": "Change in FPG from baseline, Week 24 LS Mean", "setting": "[1]; [3]", "result": -2.8, "unit": "mg/dL"},
      {"measurement": "Change in HbA1c from baseline, Week 24 LS Mean (SEM)", "setting": "[1]; [3]", "result": "−0.22 (0.282) %"},
      {"measurement": "HbA1c LSM Difference vs. Placebo (SEM), Week 24", "setting": "[1]; CKD Stage 3a (eGFR < 60 mL/min/1.73 m^2), 1000 mg BID, listed as Imeglimin", "result": "−0.44 (0.368) %"},
      {"measurement": "FPG LSM Difference vs. Placebo, Week 24", "setting": "[1]; [4]", "result": -20.6, "unit": "mg/dL"},
      {"measurement": "HbA1c LSM Difference vs. Placebo (SEM), Week 24", "setting": "[1]; [4]", "result": "−1.07", "unit": "%"},
      {"measurement": "Change in FPG from baseline, Week 24 LS Mean", "setting": "[1]; [5]", "result": -12.2, "unit": "mg/dL"},
      {"measurement": "Change in HbA1c from baseline, Week 24 LS Mean (SEM)", "setting": "[1]; [5]", "result": "−0.86 (0.265) %"},
      {"measurement": "HbA1c LSM Difference vs. Placebo (SEM), Week 24", "setting": "[1]; CKD Stage 3a (eGFR < 60 mL/min/1.73 m^2), 1500 mg BID, listed as Imeglimin", "result": "−1.07 (0.353) %"},
      {"measurement": "incidence of subjects presenting with Treatment Emergent (TE) AE", "setting": "[1]; Imeglimin 1000 mg", "result": 62.2, "unit": "%"},
      {"measurement": "incidence of subjects presenting with any adverse event (AE)", "setting": "[1]; Imeglimin 1000 mg", "result": 73, "unit": "%"},
      {"measurement": "incidence of subjects presenting with Treatment Emergent (TE) AE", "setting": "[1]; Imeglimin 1500 mg", "result": 73.3, "unit": "%"},
      {"measurement": "incidence of subjects presenting with any adverse event (AE)", "setting": "[1]; Imeglimin 1500 mg", "result": 77.3, "unit": "%"},
      {"measurement": "FPG LSM Difference vs. Placebo, Week 24", "setting": "[1]; [6]", "result": 14.5, "unit": "mg/dL"},
      {"measurement": "HbA1c LSM Difference vs. Placebo (SEM), Week 24", "setting": "[1]; [6]", "result": "−0.01 (0.290) %"},
      {"measurement": "Change in FPG from baseline, Week 24 LS Mean", "setting": "[1]; [7]", "result": 15.9, "unit": "mg/dL"},
      {"measurement": "Change in HbA1c from baseline, Week 24 LS Mean (SEM)", "setting": "[1]; [7]", "result": "0.04 (0.221) %"},
      {"measurement": "FPG LSM Difference vs. Placebo, Week 24", "setting": "[1]; [8]", "result": -28.1, "unit": "mg/dL"},
      {"measurement": "HbA1c LSM Difference vs. Placebo (SEM), Week 24", "setting": "[1]; [8]", "result": "−0.85 (0.283) %"},
      {"measurement": "Change in FPG from baseline, Week 24 LS Mean", "setting": "[1]; [9]", "result": -26.6, "unit": "mg/dL"},
      {"measurement": "Change in HbA1c from baseline, Week 24 LS Mean (SEM)", "setting": "[1]; [9]", "result": "−0.8 (0.213) %"},
      {"measurement": "FPG LSM Difference vs. Placebo, Week 24", "setting": "[1]; [10]", "result": 5.1, "unit": "mg/dL"},
      {"measurement": "HbA1c LSM Difference vs. Placebo (SEM), Week 24", "setting": "[1]; [10]", "result": "−0.47 (0.260) %"},
      {"measurement": "Change in FPG from baseline, Week 24 LS Mean", "setting": "[1]; [11]", "result": 6.6, "unit": "mg/dL"},
      {"measurement": "Change in HbA1c from baseline, Week 24 LS Mean (SEM)", "setting": "[1]; [11]", "result": "−0.42 (0.175) %"},
      {"measurement": "incidence of TEAE considered as related to the study drug", "setting": "[1]; imeglimin 500 mg (placebo 8%)", "result": 5.3, "unit": "%"},
      {"measurement": "incidence of TEAE from the gastrointestinal disorder SOC", "setting": "[1]; imeglimin 500 mg (placebo 14.7%)", "result": 14.7, "unit": "%"},
      {"measurement": "serious TEAEs", "setting": "[1]; imeglimin 500 mg bid", "result": "none"},
      {"measurement": "incidence of TEAE considered as related to the study drug", "setting": "[1]; imeglimin 1000 mg (placebo 8%)", "result": 5.4, "unit": "%"},
      {"measurement": "incidence of TEAE from the gastrointestinal disorder SOC", "setting": "[1]; imeglimin 1000 mg (placebo 14.7%)", "result": 18.9, "unit": "%"},
      {"measurement": "serious TEAEs", "setting": "[1]; imeglimin 1000 mg bid", "result": 5.4, "unit": "%"},
      {"measurement": "incidence of TEAE considered as related to the study drug", "setting": "[1]; imeglimin 1500 mg (placebo 8%)", "result": 24, "unit": "%"},
      {"measurement": "incidence of TEAE from the gastrointestinal disorder SOC", "setting": "[1]; imeglimin 1500 mg (placebo 14.7%)", "result": 32, "unit": "%"},
      {"measurement": "serious TEAEs", "setting": "[1]; imeglimin 1500 mg bid", "result": 1.3, "unit": "%"},
      {"measurement": "Mean HbA1c Change from Baseline", "setting": "subjects with T2DM; 500 mg BID (n = 44)", "result": 0.007, "unit": "%"},
      {"measurement": "Mean HbA1c Change from Baseline", "setting": "subjects with T2DM; 1000 mg BID (n = 43)", "result": "−0.072", "unit": "%"},
      {"measurement": "Mean HbA1c Change from Baseline", "setting": "subjects with T2DM; 1500 mg BID (n = 41)", "result": "−0.502", "unit": "%"},
      {"measurement": "Mean HbA1c Change from Baseline", "setting": "subjects with T2DM; 2000 mg BID (n = 42)", "result": "−0.193", "unit": "%"},
      {"measurement": "HbA1c lowering compared to placebo", "setting": "subjects with T2DM; post-hoc analysis, stage 2 and 3a CKD (eGFR <90 mL/min/1.73 m^2, n=211)", "result": "improvement in HbA1c lowering as compared to placebo"}
    ]}
  ]
}
